Results as given in US10286004B2, “Targeting-enhanced anticancer nanoparticles and preparation methods of same” (JINIS CO., LTD., priority 2013, dated 2019).

Columns and labels:
[1] = Tumor targeting efficacy: drug distribution between tumor and healthy tissues in xenograft mice (LC/MS); format: in vivo; conditions: female, athymic nude, mouse, iv; tumor tissue; 10 mg/kg/day i.v.; organs collected 16 hours after administration
Experimental: (§1) To evaluate the tumor-targeting characteristics of the targeting-enhanced nanoparticles formulated in the Examples 1 and 2, the nanoparticles were injected into mice containing human breast xenograft tumors, and the distribution of radioactivity between tumor tissues and healthy tissues was analyzed.
(§2) When the tumors reached a size of ˜100 mm^3, mice were treated intravenously with either saline control or nanoparticle preparations prepared in Examples 1 and 2, at a dose of 10 mg/kg/day. Organs from each mouse were collected at 16 hours after nanoparticle administration and ground completely with the Beadbeater. The analyte drugs were extracted from the ground tissues with acetonitrile, and the drug concentrations in each tissue were analyzed by LC/MS. The drug concentrations delivered to each tissue relative to the Injected Dose (ID) were measured in both healthy and tumor tissues, as shown in Table 3.
(§3) Targeting-enhanced nanoparticles containing paclitaxel were administered intravenously to mice with tumor xenografts, and at 4 hours after injection, the mice were exposed to a light-emitting diode, LED, at the wavelength of 630 nm at an intensity of […] for 30 minutes.

[2] = tested on: human breast xenograft tumors (MDA-MB-231); test: as above; format: in vivo; conditions: 10 mg/kg/day i.v., organs collected 16 hours after administration; for healthy % ID/g: healthy tissues
Experimental: as §1, §2, §3

[3] = tested on: large-sized tumor xenografts representing late-stage cancer; test: Efficacy of doxorubicin nanoparticles in late-stage cancer xenograft; format: in vivo, mice; conditions: without LED stated
Experimental: The lung cancer cell line NCI-H460-luc2 (Caliper Life Sciences) was prepared in suspension at 5×10^6 cells.
Tumor growth was monitored using bioluminescence imaging of luciferase-expressing cancer cell lines. Mice were injected intraperitoneally with D-luciferin at a dosage of 150 mg luciferin/kg body weight. Mice were then anesthetized under isoflurane gas supplemented with oxygen and placed under a camera equipped with a Xenogen IVIS 200 imager to generate a bioluminescent image using an IVIS imaging system (Xenogen). Bioluminescence color images were superimposed using Living Image software.

healthy mice = test: Toxicity (LD50) in healthy mice; format: in vivo; conditions: monitored 14 days, based on mortality
Experimental: After establishment of the tumor-xenograft model, either healthy mice or tumor-xenografted mice were divided into three groups (n=6) receiving saline solution (control group), free paclitaxel at the indicated dose, or targeting-enhanced nanoparticles in saline solution at the indicated dose of paclitaxel. […] To evaluate their toxicity, targeting-enhanced nanoparticles were administered to healthy mice and tumor-xenograft mice at 10 different dosages of paclitaxel: 20, 40, 60, 80, 100, 120, 250, 300, 350, and 400 mg/kg/day. Body weights and physical changes were monitored over 14 days, and the LD50s were calculated based on mortality.

tissue uptake at 16 h [1]	healthy % ID/g [2]	SMILES	tumor growth day 0 to day 28 (FIG. 10) [3]	tumor % ID/g ([2]; tumor tissue)	LD50 (healthy mice)
1.5 %ID/g	0.4~3.4 % ID/g	COc1cccc2c1C(=O)c1c(O)c3c(c(O)c1C2=O)C[C@@](O)(C(=O)CO)C[C@@H]3O[C@H]1C[C@H](N)[C@H](O)[C@H](C)O1 [Free drug doxorubicin, doxorubicin]	clear tumor growth	–	–
2.4 %ID/g	0.2~4.2 % ID/g	Nc1ccn([C@@H]2O[C@H](CO)[C@@H](O)C2(F)F)c(=O)n1 [Free drug gemcitabine, gemcitabine]	–	–	–

SMILES	tissue uptake at 16 h [1]	healthy % ID/g [2]	tumor growth day 0 to day 28 (FIG. 10) [3]	tumor % ID/g ([2]; tumor tissue)	LD50 (healthy mice)
O=C1[O][Pt]2([NH][C@@H]3CCCC[C@H]3[NH]2)[O]C1=O [Free drug oxaliplatin, oxaliplatin]	–	0.1~3.5 % ID/g	–	2.5 % ID/g	–
CC(=O)O[C@H]1C(=O)[C@@]2(C)[C@H]([C@H](OC(=O)c3ccccc3)[C@]3(O)C[C@H](OC(=O)[C@H](O)[C@@H](NC(=O)c4ccccc4)c4ccccc4)C(C)=C1C3(C)C)[C@]1(OC(C)=O)CO[C@@H]1C[C@@H]2O [Free drug paclitaxel, paclitaxel]	0.52 %ID/g	–	–	–	30 mg/kg/day
